In one assay the target is hSERT (Homo sapiens, UniProt P31645). The assay can be described thus: SERT radioligand binding assay ([125I]RTI-55, HEK-hSERT membranes). Particulars: HEK-293 hSERT membranes, 260 pM [125I]RTI-55, 1 hour at room temperature; read-out: SERT IC50. The gist of the method: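 Crude membranes from HEK-293 cells expressing hSERT (15 ug/ml, 2× stock) were incubated 1 hour at room temperature with [125I]RTI-55 (520 pM, 2× stock; at Kd) in pH 7.5 Tris, 120 mM NaCl, 5 mM KCl. Bound ligand was collected by GF/B filtration and scintillation counted. IC50 came from four-parameter fit, fluoxetine defining 100% inhibition.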
Sequence of hSERT (P31645 whole entry): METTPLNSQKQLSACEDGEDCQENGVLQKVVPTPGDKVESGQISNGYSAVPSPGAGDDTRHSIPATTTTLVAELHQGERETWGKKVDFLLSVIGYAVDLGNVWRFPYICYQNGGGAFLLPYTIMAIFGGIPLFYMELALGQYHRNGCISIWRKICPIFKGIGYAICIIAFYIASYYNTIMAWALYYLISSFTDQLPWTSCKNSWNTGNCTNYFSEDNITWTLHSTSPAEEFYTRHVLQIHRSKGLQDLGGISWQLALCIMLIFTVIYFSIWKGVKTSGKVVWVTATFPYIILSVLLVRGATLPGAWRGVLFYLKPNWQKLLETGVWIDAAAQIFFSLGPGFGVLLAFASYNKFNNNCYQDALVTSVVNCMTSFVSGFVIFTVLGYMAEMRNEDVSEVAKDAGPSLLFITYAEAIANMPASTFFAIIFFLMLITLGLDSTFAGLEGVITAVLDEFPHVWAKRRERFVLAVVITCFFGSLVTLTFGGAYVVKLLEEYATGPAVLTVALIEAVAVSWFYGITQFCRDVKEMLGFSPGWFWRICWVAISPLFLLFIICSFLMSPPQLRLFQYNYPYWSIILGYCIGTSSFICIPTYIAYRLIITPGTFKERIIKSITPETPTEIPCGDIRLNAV

In the next assay the target is T1, NK-1 (Homo sapiens, UniProt P25103).
T1 construct: 30 ul/well of a 2×U373 membrane preparation
T1 sequence (P25103 whole entry): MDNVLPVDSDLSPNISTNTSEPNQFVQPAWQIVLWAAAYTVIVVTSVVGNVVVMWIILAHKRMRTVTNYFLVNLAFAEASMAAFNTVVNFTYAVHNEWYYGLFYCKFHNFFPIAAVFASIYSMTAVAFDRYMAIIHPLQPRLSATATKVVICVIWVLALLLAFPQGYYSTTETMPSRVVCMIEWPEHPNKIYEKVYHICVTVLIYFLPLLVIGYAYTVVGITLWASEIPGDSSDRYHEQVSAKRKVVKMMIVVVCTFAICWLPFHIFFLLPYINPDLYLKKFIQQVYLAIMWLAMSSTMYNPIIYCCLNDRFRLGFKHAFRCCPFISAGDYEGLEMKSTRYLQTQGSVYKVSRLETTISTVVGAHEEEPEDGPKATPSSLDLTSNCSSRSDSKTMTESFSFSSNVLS
The assay can be described thus: NK1 radioligand binding assay ([125I]Substance P, U373 membranes). Particulars: U373 cell membranes, 200 pM [125I]Substance P, 1 hour at room temperature. The gist of the method: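 U373 cell membranes incubated 1 h at room temperature with [125I]Substance P at its Kd (added as 400 pM 2× solution) in Tris-Cl pH 7.5 with MgCl2, BSA, bacitracin and protease inhibitors. Bound radioligand collected on PEI-treated GF/B filters and counted. IC50 from four-parameter fit of triplicates; L-733,060 defined 100% inhibition.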

Where a name gives a salt, the structure may show the parent alone. A value given as a limit tells only on which side of the number the result lay.

The IC50 is the point on the concentration scale where inhibition reaches its midpoint. With `COCC(OCC1(c2ccc(F)cc2)CCN(C)CC1)c1cc(Cl)cc2cn[nH]c12` (stereo not shown) [Example 93, 5-Chloro-7-(1-((4-(4-fluorophenyl)-1-methylpiperidin-4-yl)methoxy)-2-methoxyethyl)-1H-indazole trifluoroacetic acid salt], the IC50 at hSERT and at NK-1 was 0.01 to 100 nM each time.

With `CN1CCC(COC(CF)c2cc(Cl)cc3cn[nH]c23)(c2ccc(F)cc2)CC1` (stereo not shown) [Example 94, 5-Chloro-7-(2-fluoro-1-((4-(4-fluorophenyl)-1-methylpiperidin-4-yl)methoxy)ethyl)-1H-indazole], the IC50 at hSERT and on NK-1 was 0.01 to 100 nM in each case.

In the case of `CN1CCC(COC(C#N)c2cc(Cl)cc3cn[nH]c23)(c2ccc(F)cc2)CC1` (stereo not shown) [Example 95, 2-(5-Chloro-1H-indazol-7-yl)-2-((4-(4-fluorophenyl)-1-methylpiperidin-4-yl)methoxy)acetonitrile], the IC50 on hSERT and on NK-1 was 0.01 to 100 nM throughout.

For `CC(OCC1(c2ccc(F)cc2)CCN(C)CC1)c1cc(Cl)cc2[nH]c(=O)[nH]c12` (stereo not shown) [Example 96, 6-Chloro-4-(1-((4-(4-fluorophenyl)-1-methylpiperidin-4-yl)methoxy)ethyl)-1H-benzo[d]imidazol-2(3H)-one trifluoroacetic acid salt], the IC50 lay within 0.01 to 100 nM on hSERT and 100 to 300 nM at NK-1.

For `CC(OCC1(c2ccc(F)cc2)CCN(C)CC1)c1cc(Cl)cc2[nH]c(=O)n(C)c12` (stereo not shown) [Example 97, 5-Chloro-7-(1-((4-(4-fluorophenyl)-1-methylpiperidin-4-yl)methoxy)ethyl)-1-methyl-1H-benzo[d]imidazol-2(3H)-one trifluoroacetic acid salt], the concentration for half-maximal inhibition (IC50) lay in the range of 0.01 to 100 nM on hSERT and 100 to 300 nM at NK-1.

Consider `CC(OCC1(c2ccc(F)cc2)CCN(C)CC1)c1cc(Cl)cc2c1[nH]c(=O)n2C` (stereo not shown) [Example 98, 6-Chloro-4-(1-((4-(4-fluorophenyl)-1-methylpiperidin-4-yl)methoxy)ethyl)-1-methyl-1H-benzo[d]imidazol-2(3H)-one trifluoroacetic acid salt], for which the IC50 on hSERT and at NK-1 was 0.01 to 100 nM in each case.

Consider `C[C@@H](OCC1(c2ccc(F)cc2)CCNCC1)c1cc(Cl)cc2c(Cl)n[nH]c12` [Example 99, (R)-3,5-Dichloro-7-(1-((4-(4-fluorophenyl)piperidin-4-yl)methoxy)ethyl)-1H-indazole], for which the concentration for half-maximal inhibition (IC50) at hSERT and on NK-1 was 0.01 to 100 nM each time.

Consider `C[C@@H](OCC1(c2ccc(F)cc2)CCN(C)CC1)c1cc(Cl)cc2c(Cl)n[nH]c12` [Example 100, (R)-3,5-Dichloro-7-(1-((4-(4-fluorophenyl)-1-methylpiperidin-4-yl)methoxy)ethyl)-1H-indazole], for which the 50% inhibitory concentration (IC50) on hSERT and at NK-1 was 0.01 to 100 nM each time.

As to `C[C@@H](OCC1(c2ccc(F)cc2)CCNCC1)c1cc(Br)cc2c(Br)n[nH]c12` [Example 101, (R)-3,5-Dibromo-7-(1-((4-(4-fluorophenyl)piperidin-4-yl)methoxy)ethyl)-1H-indazole], the concentration for half-maximal inhibition (IC50) at hSERT and at NK-1 was 0.01 to 100 nM throughout.

For the molecule `C[C@@H](OCC1(c2ccc(F)cc2)CCN(C)CC1)c1cc(Br)cc2c(Br)n[nH]c12` [Example 102, (R)-3,5-Dibromo-7-(1-((4-(4-fluorophenyl)-1-methylpiperidin-4-yl)methoxy)ethyl)-1H-indazole], the half-maximal inhibitory concentration (IC50) at hSERT and on NK-1 was 0.01 to 100 nM throughout.

As for `Cc1n[nH]c2c([C@@H](C)OCC3(c4ccc(F)cc4)CCN(C)CC3)cc(Cl)cc12` [Example 103, (R)-5-Chloro-7-(1-((4-(4-fluorophenyl)-1-methylpiperidin-4-yl)methoxy)ethyl)-3-methyl-1H-indazole], the half-maximal inhibitory concentration (IC50) on hSERT and on NK-1 was 0.01 to 100 nM each time.

As to `C[C@@H](OCC1(c2ccc(F)cc2)CCNCC1)c1cc(Cl)cc2cn(CC3CC3)nc12` [Example 104], the IC50 on hSERT and on NK-1 was 0.01 to 100 nM throughout.

As to `C[C@@H](OCC1(c2ccc(F)cc2)CCN(C)CC1)c1cc(Cl)cc2cn(CC3CC3)nc12` [Example 105, (R)-5-chloro-2-(cyclopropylmethyl)-7-(1-((4-(4-fluorophenyl)-1methylpiperidin-4-yl)methoxy)ethyl)-2H-indazole], the IC50 on hSERT and on NK-1 was 0.01 to 100 nM in each case.

As to `C[C@@H](OCC1(c2ccc(F)cc2)CCN(C)CC1)c1cc(Cl)cc2cnn(CC3CC3)c12` [Example 106, (R)-5-chloro-1-(cyclopropylmethyl)-7-(1-((4-(4-fluorophenyl)-1methylpiperidin-4-yl)methoxy)ethyl)-1H-indazole], the IC50 on hSERT and on NK-1 was 0.01 to 100 nM each time.

For `C[C@@H](OCC1(c2ccc(F)cc2)CCN(C)CC1)c1cc(Cl)cc2cn(CC#N)nc12` [Example 107, (R)-2-(5-chloro-7-(1-((4-(4-fluorophenyl)-1-methylpiperidine-4-yl)methoxy)ethyl)-2H-indazole-2-yl)acetonitrile], the IC50 on hSERT and at NK-1 was 0.01 to 100 nM in each case.

For `C[C@@H](OCC1(c2ccc(F)cc2)CCN(C)CC1)c1cc(Cl)cc2cnn(CC#N)c12` [Example 108], the IC50 on hSERT and at NK-1 was 0.01 to 100 nM each time.

For `CN1CCC(CO[C@H](CF)c2cc(Cl)cc3c(Cl)n[nH]c23)(c2ccc(F)cc2)CC1` [Example 109, (S)-3,5-dichloro-7-(2-fluoro-1-((4-(4-fluorophenyl)-1-methylpiperidine-4-yl)methoxy)ethyl)-1H-indazole], the IC50 on hSERT and on NK-1 was 0.01 to 100 nM throughout.

For `CN1CCC(COC(CC#N)c2cc(Cl)cc3cn[nH]c23)(c2ccc(F)cc2)CC1` (stereo not shown) [Example 110, 3-(5-chloro-1H-indazol-7-yl)-3-((4-(4-fluorophenyl)-1-methylpiperidine-4-yl)methoxy)propanenitrile], the IC50 at hSERT and on NK-1 was 0.01 to 100 nM in each case.

For `CN(C)CC(OCC1(c2ccc(F)cc2)CCNCC1)c1cc(Cl)cc2cn[nH]c12` (stereo not shown) [Example 111, 2-(5-chloro-1H-indazol-7-yl)-2-((4-(4-fluorophenyl)piperidine-4-yl)methoxy)-N,N-dimethylethanamine], the half-maximal inhibitory concentration (IC50) on hSERT is 0.01 to 100 nM; on NK-1 it was over 300 nM.

For the molecule `CN(C)CC(OCC1(c2ccc(F)cc2)CCN(C)CC1)c1cc(Cl)cc2cn[nH]c12` (stereo not shown) [Example 112, 2-(5-chloro-1H-indazol-7-yl)-2-((4-(4-fluorophenyl)-1-methylpiperidine-4-yl)methoxy)-N,N-dimethylethanamine], the results for the half-inhibitory concentration (IC50) at hSERT and at NK-1 were 100 to 300 nM and over 300 nM, respectively.

As for `CN1CCC(COC(c2cc(Cl)cc3cn[nH]c23)C(F)F)(c2ccc(F)cc2)CC1` (stereo not shown) [Example 113, 5-chloro-7(2,2-difluoro-1-((4-(4-fluorophenyl)-1-methylpiperidin-4-yl)methoxy)ethyl)-1H-indazole], the IC50 at hSERT and on NK-1 was 0.01 to 100 nM each time.

For `CCC(OCC1(c2ccc(F)cc2)CCNCC1)c1cc(Cl)cc2cn[nH]c12` (stereo not shown) [Example 114, 5-chloro-7-(1-((4-(4-fluorophenyl)piperidin-4-yl)methoxy)propyl)-1H-indazole], the IC50 at hSERT and at NK-1 was 0.01 to 100 nM throughout.

As for `CCC(OCC1(c2ccc(F)cc2)CCN(C)CC1)c1cc(Cl)cc2cn[nH]c12` (stereo not shown) [Example 115, 5-chloro-7-(1-((4-(4-fluorophenyl)-1-methylpiperidin-4-yl)methoxy)propyl)-1H-indazole], the 50% inhibitory concentration (IC50) at hSERT and on NK-1 was 0.01 to 100 nM throughout.

Turning to `C[C@@H](OCC1(c2ccc(F)cc2)CCN(C)CC1)c1cc(Cl)cc2c(Cl)n(CC(F)(F)F)nc12` [Example 116, (R)-3,5-dichloro-7-(1-((4-(4-fluorophenyl-1-methyl)piperidine-4-yl)methoxy)ethyl)-2-(2,2,2-trifluoroethyl)-2H-indazole], the half-maximal inhibitory concentration (IC50) on hSERT and at NK-1 was 0.01 to 100 nM each time.

For `C[C@@H](OCC1(c2ccccc2)CCN(C)CC1)c1cc(Cl)cc2c(Br)n[nH]c12` [Example 118, (R)-3-bromo-5-chloro-7-(1-((1-methyl-4-phenylpiperidin-4yl)methoxy)ethyl)-1H-indazole], the IC50 at hSERT and on NK-1 was 0.01 to 100 nM throughout.

Take `C[C@@H](OCC1(c2ccccc2)CCNCC1)c1cc(Cl)cc2c(Cl)n[nH]c12` [Example 119, (R)-3,5-dichloro-7-(1-((4-phenylpiperidin-4yl)methoxy)ethyl)-1H-indazole]: the IC50 at hSERT and at NK-1 was 0.01 to 100 nM each time.

On to `C[C@@H](OCC1(c2ccccc2)CCN(C)CC1)c1cc(Cl)cc2c(Cl)n[nH]c12` [Example 120, (R)-3,5-dichloro-7-(1-((1-methyl-4-phenylpiperidin-4yl)methoxy)ethyl)-1H-indazole], for which the IC50 on hSERT and at NK-1 was 0.01 to 100 nM throughout.

Turning to `C[C@H](OCC1(c2ccc(F)cc2)CCNCC1)c1cc(Cl)cc2c(Cl)n[nH]c12` [Example 121, (S)-3,5-dichloro-7-(1-((4-(4-fluorophenyl)piperidin-4-yl)methoxy)ethyl)-1h-indazole], the IC50 on hSERT is 0.01 to 100 nM; on NK-1 it was over 300 nM.

With `C[C@H](OCC1(c2ccc(F)cc2)CCN(C)CC1)c1cc(Cl)cc2c(Cl)n[nH]c12` [Example 122, (S)-3,5-dichloro-7-(1-((4-(4-fluorophenyl)-1-methylpiperidin-4-yl)methoxy)ethyl)-1h-indazole], the half-inhibitory concentration (IC50) on hSERT is 0.01 to 100 nM; on NK-1 it was over 300 nM.

Values taken from patent US8026257B2 (Bristol-Myers Squibb Company, priority 2007, dated 2011).
